Source: ChEMBL document CHEMBL1136407, “Binding mode of 6ECDCA, a potent bile acid agonist of the farnesoid X receptor (FXR)” (Bioorg Med Chem Lett, 2003)

Target: T1, Bile acid receptor (Homo sapiens, UniProt Q96RI1)
T1 sequence (Q96RI1 whole entry): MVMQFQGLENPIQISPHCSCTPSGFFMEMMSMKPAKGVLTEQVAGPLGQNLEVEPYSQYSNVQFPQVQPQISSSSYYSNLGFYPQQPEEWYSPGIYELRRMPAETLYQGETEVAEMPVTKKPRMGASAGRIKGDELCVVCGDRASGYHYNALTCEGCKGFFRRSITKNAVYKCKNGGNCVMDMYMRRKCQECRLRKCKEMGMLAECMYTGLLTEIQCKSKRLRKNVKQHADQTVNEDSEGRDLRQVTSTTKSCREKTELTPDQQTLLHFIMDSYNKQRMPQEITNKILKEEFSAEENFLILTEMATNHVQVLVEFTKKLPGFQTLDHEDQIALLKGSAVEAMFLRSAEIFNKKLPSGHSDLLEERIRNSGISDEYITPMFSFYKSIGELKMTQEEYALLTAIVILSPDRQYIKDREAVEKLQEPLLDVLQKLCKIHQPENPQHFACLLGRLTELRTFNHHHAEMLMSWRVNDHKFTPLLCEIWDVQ
Assay: Binding affinity for Farnesoid X Receptor (FXR)

Compound: C[C@H](CCC(=O)O)C1CC[C@H]2[C@@H]3[C@H](O)[C@H](Cc4ccccc4)C4C[C@H](O)CC[C@]4(C)[C@H]3CC[C@]12C (stereo partly specified)
- EC50: > 30 µM
